Measurements from patent US8415342B2, “Besifloxacin ophthalmic composition for the treatment or control of infection” (Bausch & Lomb Incorporated, priority 2008, dated 2013).
pIC50: −log10 of the molar value. In brackets after ≈: the same amount, converted by molar mass. Several values for one entry are separate records, joined by “and”; a condition that tells them apart may be missing. Identical values can stand only once. Like-named read-outs stand apart in the source and are kept apart here.

Assays:
[1] = biological target: S. pneumoniae DNA gyrase (Streptococcus pneumoniae serotype 4, UniProt P0A4L9+P72524); test: Cleavable complex stimulation (CC25), DNA gyrase; assay type: biochemical; conditions: S. pneumoniae enzymes; concentration that produces 25% linearization of the DNA
S. pneumoniae DNA gyrase, sequence (P72524 whole entry): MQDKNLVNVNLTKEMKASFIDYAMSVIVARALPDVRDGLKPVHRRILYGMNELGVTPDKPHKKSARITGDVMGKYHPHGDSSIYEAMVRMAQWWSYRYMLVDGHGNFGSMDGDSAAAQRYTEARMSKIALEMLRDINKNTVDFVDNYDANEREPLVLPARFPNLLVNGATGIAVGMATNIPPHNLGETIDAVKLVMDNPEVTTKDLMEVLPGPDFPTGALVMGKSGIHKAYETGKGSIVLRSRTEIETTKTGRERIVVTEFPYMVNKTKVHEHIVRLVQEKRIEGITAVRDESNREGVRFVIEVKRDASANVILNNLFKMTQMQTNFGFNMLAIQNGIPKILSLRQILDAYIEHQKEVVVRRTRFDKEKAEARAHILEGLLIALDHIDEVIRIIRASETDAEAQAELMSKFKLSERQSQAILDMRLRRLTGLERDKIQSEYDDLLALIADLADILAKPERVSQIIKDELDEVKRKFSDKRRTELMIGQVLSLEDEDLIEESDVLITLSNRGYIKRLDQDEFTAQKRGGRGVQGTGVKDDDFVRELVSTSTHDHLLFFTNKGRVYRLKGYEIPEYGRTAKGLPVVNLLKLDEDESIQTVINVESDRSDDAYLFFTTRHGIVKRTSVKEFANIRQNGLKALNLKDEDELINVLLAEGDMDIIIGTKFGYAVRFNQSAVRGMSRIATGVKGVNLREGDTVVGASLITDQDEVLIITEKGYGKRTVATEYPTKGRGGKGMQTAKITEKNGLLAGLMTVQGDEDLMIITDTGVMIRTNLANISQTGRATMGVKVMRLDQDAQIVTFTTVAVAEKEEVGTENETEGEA
S. pneumoniae DNA gyrase, sequence (P0A4L9 whole entry): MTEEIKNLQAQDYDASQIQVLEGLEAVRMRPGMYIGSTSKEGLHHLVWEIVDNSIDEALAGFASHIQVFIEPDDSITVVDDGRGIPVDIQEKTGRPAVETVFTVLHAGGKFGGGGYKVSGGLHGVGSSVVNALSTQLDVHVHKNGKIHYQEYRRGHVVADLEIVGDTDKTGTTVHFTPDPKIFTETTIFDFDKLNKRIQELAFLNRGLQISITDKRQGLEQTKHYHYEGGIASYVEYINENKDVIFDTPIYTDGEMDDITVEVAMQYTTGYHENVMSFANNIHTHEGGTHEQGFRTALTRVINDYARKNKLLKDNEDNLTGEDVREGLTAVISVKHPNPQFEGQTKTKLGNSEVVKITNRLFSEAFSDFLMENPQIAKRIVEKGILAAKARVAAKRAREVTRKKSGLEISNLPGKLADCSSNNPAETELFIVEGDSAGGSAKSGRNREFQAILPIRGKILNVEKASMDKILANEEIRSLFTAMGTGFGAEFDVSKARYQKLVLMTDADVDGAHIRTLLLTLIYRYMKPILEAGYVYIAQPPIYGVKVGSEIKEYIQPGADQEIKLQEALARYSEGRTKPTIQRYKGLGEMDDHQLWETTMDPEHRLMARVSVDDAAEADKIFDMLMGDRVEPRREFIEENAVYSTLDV

[2] = biological target: T1, E. coli DNA gyrase (Escherichia coli, UniProt P0AES4+P0AES6); test: Catalytic inhibition of purified DNA gyrase; assay type: biochemical
T1 sequence (P0AES4 whole entry, one chain of several): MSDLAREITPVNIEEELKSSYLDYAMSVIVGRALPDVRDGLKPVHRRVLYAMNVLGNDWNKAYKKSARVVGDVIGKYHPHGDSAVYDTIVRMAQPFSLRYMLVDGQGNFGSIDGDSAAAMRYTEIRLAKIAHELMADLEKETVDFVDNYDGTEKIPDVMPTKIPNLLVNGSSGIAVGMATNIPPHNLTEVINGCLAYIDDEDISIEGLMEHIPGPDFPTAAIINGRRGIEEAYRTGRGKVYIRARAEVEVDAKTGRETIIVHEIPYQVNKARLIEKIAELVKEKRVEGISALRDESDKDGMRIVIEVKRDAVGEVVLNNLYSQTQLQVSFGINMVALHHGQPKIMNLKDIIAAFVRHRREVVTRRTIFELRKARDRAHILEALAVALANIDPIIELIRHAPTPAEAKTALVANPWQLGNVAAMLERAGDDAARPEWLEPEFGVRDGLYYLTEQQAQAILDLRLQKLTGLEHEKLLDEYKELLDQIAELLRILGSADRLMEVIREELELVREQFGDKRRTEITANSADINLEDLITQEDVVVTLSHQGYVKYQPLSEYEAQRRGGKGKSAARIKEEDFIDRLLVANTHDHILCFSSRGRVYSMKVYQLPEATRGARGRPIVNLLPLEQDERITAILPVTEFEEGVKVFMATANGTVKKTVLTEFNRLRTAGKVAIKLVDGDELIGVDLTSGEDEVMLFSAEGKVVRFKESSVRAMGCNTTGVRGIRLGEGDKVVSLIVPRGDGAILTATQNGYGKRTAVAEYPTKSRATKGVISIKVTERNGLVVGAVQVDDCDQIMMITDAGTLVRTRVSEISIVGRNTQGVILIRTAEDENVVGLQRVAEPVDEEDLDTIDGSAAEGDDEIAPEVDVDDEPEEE

[3] = biological target: T1, E. coli DNA gyrase; test: Cleavable complex stimulation (CC25), DNA gyrase; assay type: biochemical; conditions: E. coli enzymes; concentration that produces 25% linearization of the DNA
[4] = tested on: Pathogens Associated With Bacterial Conjunctivitis; test: Integrated besifloxacin MIC data from preclinical (nonclinical) studies (Table 8); assay type: cell-based
[5] = Clostridium perfringens, N 21, agar dilution

In the case of `N[C@@H]1CCCCN(c2c(F)cc3c(=O)c(C(=O)O)cn(C4CC4)c3c2Cl)C1` [Besifloxacin, (R)-(+)-(3-amino-2,3,4,5,6,7-hexahydro-1H-azepin-1-yl)-8-chloro-1-cyclopropyl-6-fluoro-1,4,-dihydro-4-oxo-3-quinolinecarboxylic acid], the “CC25 Gyrase” value [1] was 2.5 μM and 1 μg/mL, the pIC50 ([2]; E. coli enzymes) was 5.64 and 5.60 and the “inhibitory concentration for gyrase lower than for topoisomerase IV” value ([2]; E. coli enzymes) was 10 fold. The “catalytic inhibition and cleavable complex stimulation relative to comparators” value ([2]; purified E. coli DNA gyrase and topoisomerase IV) was “equivalent to that of the ciprofloxacin and moxifloxacin comparators”, the “CC25 Gyrase” value [3] was 0.1 μM and 0.04 μg/mL and the MIC50 ([4]; Acinetobacter baumannii, Acinetobacter baumanii Quinolone-R, N 5, read-out: MIC50) was > 8 µg/mL. The MIC50 ([4]; Acinetobacter baumannii, Acinetobacter baumanii Quinolone-S, N 43, read-out: MIC50) was 0.5 µg/mL (≈ 1.27 µM), the MIC90 ([4]; Acinetobacter baumannii, Acinetobacter baumanii Quinolone-S, N 43, read-out: MIC90) was 2 µg/mL (≈ 5.08 µM) and the MIC50 ([4]; Acinetobacter baumannii-calcoaceticus Quinolone-R, N 10, read-out: MIC50) was > 8 µg/mL. The MIC90 ([4]; Acinetobacter baumannii-calcoaceticus Quinolone-R, N 10, read-out: MIC90) was > 8 µg/mL, the “MIC Range” value ([4]; Acinetobacter baumannii-calcoaceticus Quinolone-S, N 23) was 0.12 to 4 µg/mL and the MIC50 ([4]; Acinetobacter baumannii-calcoaceticus Quinolone-S, N 23, read-out: MIC50) was 0.5 µg/mL (≈ 1.27 µM). For the same compound, the “MIC Range” value ([4]; Acinetobacter lwoffii, N 13) was 0.12 to 2 µg/mL, the MIC50 ([4]; Acinetobacter lwoffii, N 13, read-out: MIC50) was 0.5 µg/mL (≈ 1.27 µM) and the MIC90 ([4]; Acinetobacter lwoffii, N 13, read-out: MIC90) was 0.5 µg/mL (≈ 1.27 µM). For the same compound, the MIC50 ([4]; Bacteroides fragilis, N 20, agar dilution, read-out: MIC50) was 0.5 µg/mL (≈ 1.27 µM), the MIC90 ([4]; Bacteroides fragilis, N 20, agar dilution, read-out: MIC90) was 1 µg/mL (≈ 2.54 µM) and the “MIC Range” value ([4]; Citrobacter koser Quinolone-R, N 1) was >8 µg/mL. The “MIC Range” value ([4]; Citrobacter koser Quinolone-S, N 99) was 0.03 to 4 µg/mL, the MIC90 ([4]; Citrobacter koser Quinolone-S, N 99, read-out: MIC90) was 0.25 µg/mL (≈ 0.635 µM) and the MIC50 [4, 5] was 0.25 µg/mL (≈ 0.635 µM). For the same compound, the MIC90 [4, 5] was 0.25 µg/mL (≈ 0.635 µM), the “MIC Range” value [4, 5] was 0.12 to 0.25 µg/mL and the “MIC Range” value ([4]; Corynebacterium species, N 30, agar dilution) was “≦0.06-2 μg/mL”. It also gave an MIC50 ([4]; Corynebacterium species, N 30, agar dilution, read-out: MIC50) of 0.25 µg/mL (≈ 0.635 µM), an MIC90 ([4]; Corynebacterium species, N 30, agar dilution, read-out: MIC90) of 2 µg/mL (≈ 5.08 µM) and an MIC50 ([4]; Cutibacterium acnes, Propionibacterium acnes, N 21, agar dilution, read-out: MIC50) of 0.25 µg/mL (≈ 0.635 µM). For the same compound, the MIC90 ([4]; Cutibacterium acnes, Propionibacterium acnes, N 21, agar dilution, read-out: MIC90) was 0.25 µg/mL (≈ 0.635 µM), the “MIC Range” value ([4]; Enterobacter aerogene Quinolone-S, N 37) was 0.12 to 4 µg/mL and the MIC50 ([4]; Enterobacter aerogene Quinolone-S, N 37, read-out: MIC50) was 0.25 µg/mL (≈ 0.635 µM). The MIC90 ([4]; Enterobacter aerogene Quinolone-S, N 37, read-out: MIC90) was 2 µg/mL (≈ 5.08 µM), the “MIC Range” value ([4]; Enterobacter cloacae Quinolone-R, N 1) was >8 µg/mL and the “MIC Range” value ([4]; Enterobacter cloacae Quinolone-S, N 58) was 0.12 to 2 µg/mL. For the same compound, the MIC50 ([4]; Enterobacter cloacae, Enterobacter cloacae Quinolone-S, N 58, read-out: MIC50) was 0.25 µg/mL (≈ 0.635 µM), the MIC90 ([4]; Enterobacter cloacae, Enterobacter cloacae Quinolone-S, N 58, read-out: MIC90) was 0.5 µg/mL (≈ 1.27 µM) and the “MIC Range” value ([4]; Fusobacterium species, N 21, agar dilution) was 0.12 to 8 µg/mL. The MIC50 ([4]; Fusobacterium species, N 21, agar dilution, read-out: MIC50) was 0.25 µg/mL (≈ 0.635 µM), the MIC90 ([4]; H. influenzae, value used for PK/PD ratios of Study 424) was “^bMIC90: H. influenzae ≦0.06 μg/mL” and the “MIC Range” value ([4]; Haemophilus influenzae (all phenotypes), N 243) was “≦0.004-0.25 μg/mL”. The “MIC Range” value ([4]; Haemophilus influenzae β-lactamase+, N 118) was 0.008 to 0.12 µg/mL, the “MIC Range” value ([4]; Haemophilus influenzae β-lactamase−, N 100) was “≦0.004-0.12 μg/mL” and the MIC90 ([4]; Haemophilus influenzae, H. influenzae, value used for PK/PD ratios of Study 424, read-out: MIC90) was ≤ 0.06 µg/mL. For the same compound, the MIC50 ([4]; Haemophilus influenzae, Haemophilus influenzae (all phenotypes), N 243, read-out: MIC50) was 0.03 µg/mL (≈ 0.0762 µM), the MIC50 ([4]; Haemophilus influenzae, Haemophilus influenzae β-lactamase+, N 118, read-out: MIC50) was 0.03 µg/mL (≈ 0.0762 µM) and the MIC50 ([4]; Haemophilus influenzae, Haemophilus influenzae β-lactamase− Ampicillin-R, N 25, read-out: MIC50) was 0.12 µg/mL (≈ 0.305 µM). The MIC90 ([4]; Haemophilus influenzae, Haemophilus influenzae β-lactamase− Ampicillin-R, N 25, read-out: MIC90) was 0.25 µg/mL (≈ 0.635 µM), the MIC50 ([4]; Haemophilus influenzae, Haemophilus influenzae β-lactamase−, N 100, read-out: MIC50) was 0.03 µg/mL (≈ 0.0762 µM) and the “MIC Range” value ([4]; Key Organisms Quinolone-S, N 894) was “≦0.004-1 μg/mL”. It also gave an MIC50 ([4]; Key Organisms Quinolone-S, N 894, read-out: MIC50) of 0.06 µg/mL (≈ 0.152 µM), an MIC90 ([4]; Key Organisms Quinolone-S, N 894, read-out: MIC90) of 0.12 µg/mL (≈ 0.305 µM) and an MIC50 ([4]; Key Organisms combined, N 1205) of 0.06 µg/mL. For the same compound, the MIC90 ([4]; Key Organisms combined, N 1205, read-out: MIC90) was 1 µg/mL, the “MIC Range” value ([4]; Klebsiella oxytoca Quinolone-R, N 5) was 1 to 8 µg/mL and the MIC50 ([4]; Klebsiella oxytoca Quinolone-R, N 5, read-out: MIC50) was 8 µg/mL (≈ 20.3 µM). The “MIC Range” value ([4]; Klebsiella oxytoca Quinolone-S, N 45) was 0.06 to 1 µg/mL, the MIC90 ([4]; Klebsiella oxytoca, Klebsiella oxytoca Quinolone-S, N 45, read-out: MIC90) was 0.5 µg/mL (≈ 1.27 µM) and the MIC50 ([4]; Legionella pneumophila, N 50) was 0.03 µg/mL (≈ 0.0762 µM). For the same compound, the MIC90 ([4]; Legionella pneumophila, N 50) was 0.03 µg/mL (≈ 0.0762 µM), the “MIC Range” value ([4]; Legionella pneumophila, N 50) was 0.015 to 0.06 µg/mL and the MIC50 ([4]; Moraxella catarrhalis, N 201, read-out: MIC50) was 0.06 µg/mL (≈ 0.152 µM). For the same compound, the MIC90 ([4]; Moraxella catarrhalis, N 201, read-out: MIC90) was 0.12 µg/mL (≈ 0.305 µM), the “MIC Range” value ([4]; Moraxella species, N 30, agar dilution) was “≦0.06-0.13 μg/mL” and the MIC50 ([4]; Moraxella species, N 30, agar dilution, read-out: MIC50) was ≤ 0.06 µg/mL. The MIC90 ([4]; Moraxella species, N 30, agar dilution, read-out: MIC90) was 0.13 µg/mL (≈ 0.33 µM), the “MIC Range” value ([4]; Morganella morganii Quinolone-S, N 39) was 0.03 to 2 µg/mL and the MIC50 ([4]; Morganella morganii, Morganella morganii Quinolone-R, N 12, read-out: MIC50) was 4 µg/mL (≈ 10.2 µM). The MIC90 ([4]; Morganella morganii, Morganella morganii Quinolone-R, N 12, read-out: MIC90) was 8 µg/mL (≈ 20.3 µM), the MIC90 ([4]; Morganella morganii, Morganella morganii Quinolone-S, N 39, read-out: MIC90) was 1 µg/mL (≈ 2.54 µM) and the “MIC Range” value ([4]; Neisseria gonorrhoeae, N 103) was 0.004 to 2 µg/mL. It also gave an MIC50 ([4]; Neisseria gonorrhoeae, N 103, read-out: MIC50) of 0.015 µg/mL (≈ 0.0381 µM) and an MIC90 ([4]; Neisseria gonorrhoeae, N 103, read-out: MIC90) of 0.015 µg/mL (≈ 0.0381 µM).
